Columns and labels:
[1] = tested on: AR (DBD-LBD, LBD, DBD); assay: Yeast two-hybrid / liquid β-gal assay hRad9 fragment / AR domains; format: cell-based, human; conditions: AH109 yeast cells
From the text: The DBD and LBD of AR cDNA was amplified and was cloned into the NdeI and BamHI site of pGBKT7 (Clontech). Yeast strain AH109 was transformed with the vector encoding GAL4 DBD-AR-DBD-LBD fusion and was mated with yeast strain Y187 pretransformed with the human ovary […] cDNA library (Clontech). The yeast clones were selected following the manufacturer's instruction. The positive clones were confirmed by clone lift assay and purified plasmids were retransformed into yeast strain AH109 with bait plasmids. The interaction specificity was further confirmed by liquid […] assay.

[2] = tested on: AR; assay: In vitro GST pull-down assay GST-hRad9 / AR domains; format: binding, human
Description: The N-terminus (N), DBD, LBD, and DBD-LBD of AR were in vitro translated in the presence of [^35S] methionine using T7 polymerase and the coupled transcription/translation kit (Promega). pGEX-KG-hRad9 plasmids expressing GST-hRad9 fusion protein were transformed into BL21 (DE3) bacteria strain. 0.4 mM isopropyl-o-D-thiogalactopyranoside was added into LB medium containing transformed bacteria when the OD600 reached 0.5. Bacteria were further cultured in 30° C. for 3 h and lysed by 4 cycles of freezing-thawing in NETN buffer (20 mM Tris/pH 8.0, 0.5% NP-40, 100 mM NaCl, 6 mM MgCl2, 1 mM EDTA, 1 mM DTT, 8% glycerol, and 1 mM PMSF). The GST-hRad9 fusion proteins were purified with glutathione-beads in 4° C. Labeled proteins of AR mutants were incubated with equal amounts of GST-hRad9 in binding buffer (50 mM Hepes, 100 mM NaCl, 20 mM Tris-Cl/pH 8.0, 0.1% Tween 20, 10% glycerol, 1 mM dithiothreitol, 0.5 mM phenylmethysulfonyl fluoride, 1 mM NaF, and 0.4 mM sodium vanadate) with or without 10 nM DHT at 4° C. for 2 h. The beads were then washed with NETN buffer 4 times, resuspended in SDS-polyacrylamide loading buffer, and resolved on 10% SDS-polyacrylamide gel electrophoresis followed by autoradiograhy.

[3] = tested on: AR; assay: AR transactivation MMTV-LUC assay in PC-3 cells with hRad9; format: cell-based, human; conditions: MMTV-LUC, 10 nM DHT
Description: (§1) PC-3, CWR22R, and LNCaP cell lines were maintained in […] supplemented with 10% fetal calf serum (FCS). Transient transfection for luciferase assays was carried out in 24-well plates (5×10^4 cells per well) using SuperFect as described previously (Lin, H. K., et al., Embo J 21:4037-48 (2002)). DNA mixtures in transfection assay were indicated in each figure. The total amount of transfected DNA was kept constant (1 μg) by adding the corresponding amounts of empty expression plasmids. After transfection, cells were cultured in RPMI-1600 supplemented with 5% charcoal-stripped FCS in the presence or absence of 10 nM dihydrotestosterone (DHT) for 18 h. Luciferase assays were performed as previously described (Yang, L., et al., J Biol Chem 278:16820-7 (2003)). In Western blotting assays, CWR22R or LNCaP cells were transfected by electroporation using 5×10^6 cells/0.4 ml of RPMI medium containing 2% FCS plus 9 μg of the indicated plasmids. 1 μg of EGFP expression vector was used for transfection efficiency. Electroporation was performed at 250 V and 950 μF using Gene Pulser II (Bio-Rad)
Target sequence in this assay (P10275 with tags, fused parts or gaps DEL79-80/DUP473-473): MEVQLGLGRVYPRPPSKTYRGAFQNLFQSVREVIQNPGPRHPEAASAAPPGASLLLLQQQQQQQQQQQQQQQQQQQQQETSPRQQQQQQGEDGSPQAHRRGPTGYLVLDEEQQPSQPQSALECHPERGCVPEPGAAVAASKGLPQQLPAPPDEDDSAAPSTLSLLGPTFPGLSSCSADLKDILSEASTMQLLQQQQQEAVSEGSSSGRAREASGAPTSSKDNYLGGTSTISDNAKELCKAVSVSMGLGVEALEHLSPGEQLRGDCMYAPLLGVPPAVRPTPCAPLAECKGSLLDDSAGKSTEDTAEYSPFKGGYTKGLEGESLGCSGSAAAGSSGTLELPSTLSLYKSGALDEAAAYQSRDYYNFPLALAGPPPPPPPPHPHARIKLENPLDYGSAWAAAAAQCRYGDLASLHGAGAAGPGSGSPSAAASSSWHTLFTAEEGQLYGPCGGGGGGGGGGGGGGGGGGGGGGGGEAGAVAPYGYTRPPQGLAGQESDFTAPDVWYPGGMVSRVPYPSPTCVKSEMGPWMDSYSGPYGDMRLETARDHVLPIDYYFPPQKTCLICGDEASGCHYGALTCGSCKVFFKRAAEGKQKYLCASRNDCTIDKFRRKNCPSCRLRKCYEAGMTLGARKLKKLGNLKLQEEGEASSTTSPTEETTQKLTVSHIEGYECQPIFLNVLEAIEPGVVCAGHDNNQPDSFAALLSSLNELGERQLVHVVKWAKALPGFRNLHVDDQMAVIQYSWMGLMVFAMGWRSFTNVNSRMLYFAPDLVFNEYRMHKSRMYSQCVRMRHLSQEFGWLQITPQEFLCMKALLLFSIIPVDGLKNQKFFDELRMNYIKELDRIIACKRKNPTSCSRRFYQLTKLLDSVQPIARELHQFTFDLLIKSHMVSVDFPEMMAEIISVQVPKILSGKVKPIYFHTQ

[4] = tested on: PSA expression in LNCaP cells; assay: DHT-mediated induction of PSA protein in LNCaP cells with hRad9; format: cell-based, human; conditions: 10 nM DHT
Description: as §1

[5] = tested on: estrogen receptor α (ERα); assay: ERα transcriptional activity ERE-LUC in PC-3 cells with hRad9; format: cell-based; conditions: cognate ligand
Description: as §1

[6] = tested on: vitamin D receptor (VDR); assay: VDR transcriptional activity rCyp24-LUC in PC-3 cells with hRad9; format: cell-based; conditions: cognate ligand
Description: as §1

[7] = tested on: estrogen receptor α (ERα); assay: Mammalian two-hybrid assay hRad9 / ERα; format: cell-based; conditions: PC-3 cells, presence of estrogen
Description: as §1, with “After transfection, cells were cultured in RPMI-1600 supplemented with 5% charcoal-stripped FCS in the presence or absence of 10 nM dihydrotestosterone (DHT) for 18 h.” left out

[8] = tested on: vitamin D receptor (VDR); assay: Mammalian two-hybrid assay hRad9 / VDR; format: cell-based; conditions: PC-3 cells
Description: as §1

[9] = tested on: AR; assay: Mammalian two-hybrid assay hRad9 / AR in PC-3 cells; format: cell-based, human; conditions: 10 nM DHT, positive control
Description: as §1
Target sequence in this assay (P10275 with tags, fused parts or gaps DEL79-80/DUP473-473): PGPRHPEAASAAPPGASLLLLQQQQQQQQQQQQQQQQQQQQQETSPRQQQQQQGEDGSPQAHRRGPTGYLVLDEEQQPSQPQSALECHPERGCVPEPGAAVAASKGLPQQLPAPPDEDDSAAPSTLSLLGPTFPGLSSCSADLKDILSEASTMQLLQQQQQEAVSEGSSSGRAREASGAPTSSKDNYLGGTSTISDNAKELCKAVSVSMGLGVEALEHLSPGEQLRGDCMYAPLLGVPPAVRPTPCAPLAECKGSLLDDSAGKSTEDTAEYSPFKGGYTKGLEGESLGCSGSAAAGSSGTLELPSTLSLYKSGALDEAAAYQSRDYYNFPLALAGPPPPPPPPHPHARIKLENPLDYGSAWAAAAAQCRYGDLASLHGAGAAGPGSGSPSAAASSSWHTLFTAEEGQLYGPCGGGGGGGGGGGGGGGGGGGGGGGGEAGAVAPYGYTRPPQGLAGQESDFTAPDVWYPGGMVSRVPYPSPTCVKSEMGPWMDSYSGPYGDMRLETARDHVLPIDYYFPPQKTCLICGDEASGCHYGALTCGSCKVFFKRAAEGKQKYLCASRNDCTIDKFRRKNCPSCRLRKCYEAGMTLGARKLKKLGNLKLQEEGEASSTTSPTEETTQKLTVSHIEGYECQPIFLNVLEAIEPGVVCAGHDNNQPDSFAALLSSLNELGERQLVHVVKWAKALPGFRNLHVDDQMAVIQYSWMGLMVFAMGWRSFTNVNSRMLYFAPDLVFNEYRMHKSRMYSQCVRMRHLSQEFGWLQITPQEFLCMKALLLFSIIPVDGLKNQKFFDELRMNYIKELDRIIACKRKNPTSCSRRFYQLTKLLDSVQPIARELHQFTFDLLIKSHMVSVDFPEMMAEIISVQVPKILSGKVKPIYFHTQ

[10] = tested on: AR N/C interaction; assay: Reconstituted AR transcription assay (AR N/C interaction) in PC-3 cells; format: cell-based, human; conditions: 10 nM DHT, MMTV-LUC
Description: as §1

Sequence of vitamin D receptor (VDR) (P11473 whole entry, species assumed): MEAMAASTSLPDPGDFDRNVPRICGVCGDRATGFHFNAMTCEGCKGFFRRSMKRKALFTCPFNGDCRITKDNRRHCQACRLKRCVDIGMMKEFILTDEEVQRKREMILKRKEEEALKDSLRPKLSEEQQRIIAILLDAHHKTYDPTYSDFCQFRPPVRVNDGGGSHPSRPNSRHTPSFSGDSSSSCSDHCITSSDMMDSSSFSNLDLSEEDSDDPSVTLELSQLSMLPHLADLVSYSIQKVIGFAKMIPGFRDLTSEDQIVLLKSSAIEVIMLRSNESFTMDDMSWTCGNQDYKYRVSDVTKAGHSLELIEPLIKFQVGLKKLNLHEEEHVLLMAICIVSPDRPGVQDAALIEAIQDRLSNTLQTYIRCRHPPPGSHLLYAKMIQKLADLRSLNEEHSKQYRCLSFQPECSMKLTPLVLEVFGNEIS
Sequence of estrogen receptor α (ERα) (P03372 whole entry, species assumed): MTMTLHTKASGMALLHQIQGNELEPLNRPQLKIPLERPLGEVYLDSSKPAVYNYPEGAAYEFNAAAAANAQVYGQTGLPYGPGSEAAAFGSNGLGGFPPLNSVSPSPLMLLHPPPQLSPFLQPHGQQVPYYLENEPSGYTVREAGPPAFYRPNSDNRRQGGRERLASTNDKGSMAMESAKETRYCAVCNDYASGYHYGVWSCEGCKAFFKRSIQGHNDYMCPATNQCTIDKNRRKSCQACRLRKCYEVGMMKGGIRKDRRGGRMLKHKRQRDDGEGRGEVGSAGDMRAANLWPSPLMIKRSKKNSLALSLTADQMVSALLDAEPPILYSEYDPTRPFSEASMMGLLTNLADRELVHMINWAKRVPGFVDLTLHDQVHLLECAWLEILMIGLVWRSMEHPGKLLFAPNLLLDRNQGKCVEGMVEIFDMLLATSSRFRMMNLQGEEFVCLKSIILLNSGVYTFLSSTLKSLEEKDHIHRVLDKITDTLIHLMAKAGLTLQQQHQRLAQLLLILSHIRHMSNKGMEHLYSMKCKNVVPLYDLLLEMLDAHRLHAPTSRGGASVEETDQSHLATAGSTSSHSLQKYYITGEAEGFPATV
Sequence of AR (DBD-LBD, LBD, DBD) (P10275 558-624): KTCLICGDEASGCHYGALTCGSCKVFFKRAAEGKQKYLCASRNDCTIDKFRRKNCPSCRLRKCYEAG
Sequence of AR N/C interaction (P10275 557-920): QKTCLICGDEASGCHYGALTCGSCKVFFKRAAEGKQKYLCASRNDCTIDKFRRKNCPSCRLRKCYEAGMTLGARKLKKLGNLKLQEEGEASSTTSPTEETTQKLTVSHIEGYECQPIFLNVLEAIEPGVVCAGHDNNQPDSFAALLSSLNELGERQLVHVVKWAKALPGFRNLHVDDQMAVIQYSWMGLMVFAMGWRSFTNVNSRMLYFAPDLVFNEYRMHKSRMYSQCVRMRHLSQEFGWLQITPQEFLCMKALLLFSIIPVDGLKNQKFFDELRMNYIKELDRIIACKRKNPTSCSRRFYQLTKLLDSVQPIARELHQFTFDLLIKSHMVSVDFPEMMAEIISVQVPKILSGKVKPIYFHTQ

Substance	interaction with GAL4-AR-DBD [1]	interaction with AR LBD and AR-DBD-LBD [2]	interaction with N-terminus of AR (aa. 1-556) and DBD alone [2]	transcriptional activity of AR [3]	DHT-mediated induction of PSA [4]	ER transcriptional activity [5]	VDR transcriptional activity [6]	interaction with ERα [7]	interaction with VDR [8]	DHT-dependent interaction with VP16-AR [9] [fold]	interaction between AR N- and C-terminus [10]
hRad9: human checkpoint protein of the Rad family (SEQ ID NO:7), corepressor of AR	did not interact	interacted specifically	Neither the N-terminus of AR (aa. 1-556) nor the DBD alone adhered	decreased	potently inhibited	little inhibitory effect	little inhibitory effect	no interaction	no interaction	–	–
HPTHSSRLWELLMEATPTM [GAL4-D30 peptide, reference compound]	–	–	–	–	–	–	–	–	–	350	blockage
